Results published in EP0107214A2, “Pharmaceutical compositions containing benzoyl-phenyl ureas with anti-tumour activity” (DUPHAR INTERNATIONAL RESEARCH B.V, priority 1982, dated 1984).
Where “and” joins values, the source holds several entries; their conditions need not be identical. Equal values may be shown once. Read-outs that look alike come from different tables or passages of the source.

Experiments:
[1] = test system: B-16 malignant melanoma; assay: B-16 malignant melanoma in C57BL/6 mice, tumor growth after intraperitoneal injection; type: in vivo
Procedure: (§1) The compounds were tested by intraperitoneal injections of suspensions of the compounds in an aqueous solution of polyvinyl pyrrolidone.
Mice with malignant melanomas were injected with 20 mg or 40 mg diflubenzuron in suspension or with the suspension medium (blank).
Finally compound 2) was given in doses of 20 mg each on days 0, 1 and 2.
Animals with growing tumors were treated with 100 mg of diflubenzuron alone (suspended in an aqueous solution of polyvinylpyrrolidone) or in combination with a metabolic inhibitor or a metabolic inducer according to the schedule given in Table XI.

[2] = test system: Ridgeway Osteogenic Sarcoma (ROS); assay: Ridgeway Osteogenic Sarcoma (ROS) in AKR mice, tumor growth after intraperitoneal injection; type: in vivo
Procedure: (§2) Ridgeway Osteogenic Sarcoma (ROS) in AKR mice. The advantage of the use of such a localized, non-metastatic tumor for studies on drug effects is that pertuba- tions of tumor growth and longevity of the mice are attributable to a direct effect on the primary tumor. • III. Skin carcinoma (Ca 1025) in AKR mice. This tumor represents a second histologic cell type arising from skin and is less malignant than malignant melanoma.
as §1
Doses of diflubenzuron of 20 mg on day 0 (Table VI), 20 mg each on days 0 and 3; and 20 mg each on days 0, 1, 2, 5 and 6 (Table VII) were used in this test model. […]

[3] = test system: Skin carcinoma (Ca 1025); assay: Skin carcinoma (Ca 1025) in AKR mice, tumor growth after intraperitoneal injection; type: in vivo; conditions: single injection 20 mg
Procedure: as §2, §1
The compound PH 60-44 was also tested in this model.

[4] = test system: melanoma B-16 cells; assay: Malignant melanoma B-16 cells in vitro, cell count by Coulter Counter; type: cell-based; conditions: Mus musculus; for activity at 50 µg/mL: B16, 48 h, 50 ug/ml
Procedure: Cells of malignant melanomas B-16 grow as a monolayer. The doubling time of this type of cells in a cell--culture is 12 to 16 hours. For this experiment 6 multi-well tissue culture plates having a flat bottom with a surface area of 6 cm^2 appeared to be suitable and have been used.
On day 0 a quantity of melanoma B-16 cells were brought on the cell-culture plates.
The test compounds were sonicated and then incubated without cells for 3 hours at 37°C.
Then the compound to be tested was administered to the plates with melanoma B-16 cells in the desired quantity (each test was done in triplicate). Thereafter the plates were incubated in a C02-incubator for 20 hours at 37°C. Then the incubation was stopped by removing the culture medium containing the test compound, the cells were washed twice, and fresh culture medium was added.
48 Hours after starting the incubation step the number of cells on each plate was measured by means of a microcell Coulter Counter. The results so obtained have been expressed as "percentage of controll cell growth".
In the above experiment the compounds to be tested have been used in the form of a suspension. Since it is not quite clear how much of the active compounds is dissolved, the above results cannot be compared very well.
Therefore a number of compounds has been dissolved in ethanol.

[5] = 100 mg (20 mg days 0-4) after 2.4 mg cobaltous chloride (1.2 mg on days -2 and -1)
[6] = 100 mg (20 mg days 0-4) after 4 mg phenobarbital (1 mg on days -4 to -1)
[7] = 100 mg (20 mg days 0-4) after 6.4 mg 3-methylcholanthrene (1.6 mg on days -4 to -1)
[8] = 100 mg total, 20 mg each on day 0, 1, 2, 3 and 4
[9] = 2 x 20 mg, on day 0 and day 2 or 4
[10] = single injection 40 mg, i.p. suspension
[11] = 5 x 20 mg, days 0, 1, 2, 5 and 6

O=C(NC(=O)c1c(F)cccc1F)Nc1ccc(Cl)cc1 [Compound 1, 1-(2,6-difluorobenzoyl)-3-(4-chlorophenyl)urea]
% change in tumor mass day 1 [1, 5]: 14.4 (16) %
% change in tumor mass day 2 [1, 5]: 20.9 (12) %
% change in tumor mass day 3 [1, 5]: 36.4 (12) %
% change in tumor mass day 4 [1, 5]: 39.3 (12) %
% change in tumor mass day 5 [1, 5]: 59.7 (12) %
% change in tumor mass day 10 [1, 5]: 306 (12) %
% change in tumor mass day 14 [1, 5]: 782 (9) %
% change in tumor mass day 1 [1, 6]: -19.4 (23) %
% change in tumor mass day 2 [1, 6]: -10.4 (23) %
% change in tumor mass day 3 [1, 6]: 0.8 (23) %
% change in tumor mass day 4 [1, 6]: 21.7 (23) %
% change in tumor mass day 5 [1, 6]: 72.1 (23) %
% change in tumor mass day 10 [1, 6]: 293 (23) %
% change in tumor mass day 14 [1, 6]: 572 (10) %
% change in tumor mass day 1 [1, 7]: -29.2 (34) %
% change in tumor mass day 2 [1, 7]: -23.5 (34) %
% change in tumor mass day 3 [1, 7]: -20.6 (32) %
% change in tumor mass day 4 [1, 7]: -15.1 (29) %
% change in tumor mass day 5 [1, 7]: 5.7 (21) %
% change in tumor mass day 10 [1, 8]: 266 (17) %
% change in tumor mass day 14 [1, 8]: 378 (12) %
% change in tumor mass on day 11 [1, 8]: 891 (12) %
% change in tumor mass day 2 ([1]; 100 mg total, 20 mg each on day 0, 1, 2, 3 and 4, listed as diflubenzuron): -8.6 (17) % and -12.5 (22) % and -7.2 (12) %
% change in tumor mass day 1 [1, 9]: -11.7 (26) %
% change in tumor mass day 2 [1, 9]: 18.6 (26) %
% change in tumor mass day 3 [1, 9]: 92.6 (16) %
% change in tumor mass day 4 [1, 9]: 143 (26) %
% change in tumor mass day 5 [1, 9]: 178 (10) %
% change in tumor mass day 6 [1, 9]: 264 (26) %
% change in tumor mass day 15 [1, 9]: 1187 (16) %
reduction in tumor size within 24 hours of treatment ([1]; initial injection of 20 mg, two experiments, listed as diflubenzuron): 11.7% and 13.4%
initial decrease (tumor size) ([1]; injection of 40 mg): 22%
% change in tumor mass day 2 ([1]; single injection 20 mg, i.p. suspension): 18.6(26) %
% change in tumor mass day 1 ([1]; single injection 20 mg, i.p. suspension, listed as diflubenzuron): -11.7(26) % and -13.4(22) %
initial doubling time (in days) 0-2 days ([1]; single injection 20 mg, calculated from change within 48 hours after treatment, listed as diflubenzuron): 10.4 days and 10.4(26) days
% change in tumor mass day 1 [1, 10]: -22.4(8) %
% change in tumor mass day 2 [1, 10]: -14.7(8) %
initial doubling time (in days) 0-2 days ([1]; single injection 40 mg, negative = time for decrease to one-half size): -6.7(8) days
% change in tumor mass day 1 ([2]; 20 mg on day 0): 14.4 (29) %
% change in tumor mass day 2 ([2]; 20 mg on day 0): 48.5 (19) %
% change in tumor mass day 1 ([2]; 2 x 20 mg, days 0 and 3): 32.0 (10) %
% change in tumor mass day 3 ([2]; 2 x 20 mg, days 0 and 3): 104 (10) %
% change in tumor mass day 4 ([2]; 2 x 20 mg, days 0 and 3): 213 (10) %
% change in tumor mass day 5 ([2]; 2 x 20 mg, days 0 and 3): 298 (10) %
% change in tumor mass day 7 ([2]; 2 x 20 mg, days 0 and 3): 511 (10) %
% change in tumor mass day 14 ([2]; 2 x 20 mg, days 0 and 3): 1682 (10) %
% change in tumor mass day 21 ([2]; 2 x 20 mg, days 0 and 3): 4051 (10) %
% change in tumor mass day 1 [2, 11]: 12.2 (10) %
% change in tumor mass day 2 [2, 11]: 43.3 (10) %
% change in tumor mass day 5 [2, 11]: 285 (10) %
% change in tumor mass day 7 [2, 11]: 423 (10) %
% change in tumor mass day 14 [2, 11]: 2495 (10) %
% change in tumor mass day 21 [2, 11]: 8880 (8) %
% change in tumor mass day 1 [3]: -3.8 (35) %
% change in tumor mass day 2 [3]: 19.9 (7) %
activity at 50 µg/mL ([4]; dissolved in ethanol, read-out: Percentage of controll cell growth (solution)): 48%
activity at 50 µg/mL ([4]; suspension, read-out: Percentage of controll cell growth (suspension)): 79%
activity at 500 µg/mL ([4]; B16, suspension, 20 hours incubation, cells counted at 48 hours, read-out: Percentage of controll cell growth when tested in an amount of 5 x 10^2 µg/ml): 78%
activity at 5000 µg/mL ([4]; B16, suspension, 20 hours incubation, cells counted at 48 hours, read-out: Percentage of controll cell growth when tested in an amount of 5 x 10^3 µg/ml): 41%
